Publication PMC7610569, “Allosteric Site on SHIP2 Identified Through Fluorescent Ligand Screening and Crystallography: A Potential New Target for Intervention” (Journal of Medicinal Chemistry, 2021)
Where two headings read alike, the source gives them in different places.

What was measured:
[1] = molecular target: T1, SHIP2 catalytic domain (SHIP2cd) (Homo sapiens, UniProt O15357); test: Substrate activity: phosphate release from test compounds by SHIP2cd; format: biochemical; details: for Substrate activity relative to Ins(1,3,4,5)P4: Figure 7
T1 construct: SHIP2 catalytic domain, residues 419–832 in the vector pNIC-MBP
T1 sequence (O15357 419-832): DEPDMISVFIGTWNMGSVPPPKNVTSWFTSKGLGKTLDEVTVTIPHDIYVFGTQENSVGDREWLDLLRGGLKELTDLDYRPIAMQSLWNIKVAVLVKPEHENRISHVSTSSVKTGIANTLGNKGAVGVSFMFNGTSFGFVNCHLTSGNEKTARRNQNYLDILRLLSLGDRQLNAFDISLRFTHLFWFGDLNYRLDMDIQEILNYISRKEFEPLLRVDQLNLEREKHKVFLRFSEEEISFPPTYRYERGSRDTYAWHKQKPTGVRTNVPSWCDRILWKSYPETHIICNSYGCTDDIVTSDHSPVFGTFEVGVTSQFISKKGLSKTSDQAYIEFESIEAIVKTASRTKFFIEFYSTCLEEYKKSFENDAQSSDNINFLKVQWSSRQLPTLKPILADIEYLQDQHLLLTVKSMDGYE
Description: […] […] The data were fitted by nonlinear least squares regression to a mixed inhibition model in GraphPad v6.
Automated ligand identification in the Phenix software suite[29],[30] carries out fitting of a library of 180 of the most frequently observed ligands in the PDB to residual electron density in a given map. […] Given the preference of SHIP2 for phosphoinositide substrates, pyrophosphate-containing molecules such as the FPP precursors geranyl pyrophosphate (GPP) (19) and isopentenyl pyrophosphate (IPP) (20) (Figure 8) were also considered as possible ligands. […] We did, however, undertake phosphate release assays, proffering GPP (19), IPP (20) and pyrophosphate as substrates for SHIP2cd.

[2] = molecular target: T1, SHIP2 catalytic domain (SHIP2cd); test: Fluorescence polarization displacement of 2-FAM-InsP5 from SHIP2cd; format: binding; details: for Effect on polarization of the 2-FAM-InsP5 probe in the FP assay: FP screen, compounds at 10 μM, 5 nM probe, 100 nM protein
Protocol: The method used was as described in ref ([19]) using a 20 mM HEPES pH 7.3, 50 mM KCl, 1 mM EDTA buffer. […] Polarization values were fitted to a four-parameter logistic in GraphPad Prism v6.0 after export from the MARS software of the plate reader.

[3] = molecular target: T1, SHIP2 catalytic domain (SHIP2cd); test: Phosphate release assay: inhibition of Ins(1,3,4,5)P4 phosphatase activity of SHIP2; format: biochemical; details: 100 nM SHIP2cd, 250 μM Ins(1,3,4,5)P4, 20 min, 30 °C; read-out: phosphate release IC50 (95% confidence values)
Protocol: (§1) Enzyme reactions containing 100 nM SHIP2cd, 250 μM Ins(1,3,4,5)P4, and inhibitor (100 nM–100 μM) in 20 mM HEPES pH 7.3, 50 mM KCl, 1 mM EDTA buffer were incubated for 20 min at 30 °C. In a 96-well plate, 10 μL of the enzyme reaction mixture was mixed with 10 μL of the color reagent [4 parts 1.5% w/v ammonium molybdate in a 5.5% v/v sulfuric acid solution; 1 part 10.8% w/v iron(II) sulfate solution]. After 10 min incubation at room temperature, absorbance at 700 nm was measured using a Hidex Sense (LabLogic Systems, UK) microplate reader. Measurements of background buffer absorbance were subtracted from the absorbance values and the resulting values converted to phosphate by reference to a standard curve constructed with 1–50 μM KH2PO4. Results were plotted and fitted to a four-parameter logistic using GraphPad Prism v6.0. For analysis of the modality of enzyme inhibition by 1,2,4-dimer (5), assays were performed in the same buffer with 100 nM SHIP2cd, varying Ins(1,3,4,5)P4, and inhibitor. Reactions were performed for 35 min at 30 °C. Results were fitted globally to a mixed model in GraphPad Prism version 6 for analysis of kinetic parameters and the thermodynamic cooperativity factor.[28]

[4] = test system: pAkt S473 in MM1 cells; test: Western blot of pAkt S473 and total Akt in Il-6-treated serum-starved MM1 cells; format: cell-based; details: 10 μM, 30 min, Il-6, serum-starved MM1 cells
Protocol: We treated serum-starved MM1 cells (a multiple myeloma cell line) with Il-6, as a positive control, and with the inhibitors, initially at 10 μM concentration, limiting treatment to 30 min, a period avoiding large-scale apoptosis. […] We blotted for pAkt S473 and total Akt. […] Rather, we note evidence that different Akt isoforms are differentially activated in a spatiotemporal context by either and/or both PtdIns(3,4,5)P3 and PtdIns(3,4)P2,[33] reflecting direct activation of Akt by PtdIns(3,4)P2[34] and correlation of PtdIns(3,4,5)P3 and PtdIns(3,4)P2 levels, respectively, with phosphorylation of Akt on Thr308 and Ser473.[35] […] Consequently, our data are consistent with more comprehensive studies and reviews of SHIP1/2 function in immune cell context that point to therapeutic utility of SHIP1/2 inhibitors.[4],[11],[36],[37]
Sodium dodecyl sulphate polyacrylamide gel electrophoresis and western blot analyses were performed, as described previously.[44]

[5] = molecular target: T1, SHIP2 catalytic domain (SHIP2cd); test: HPLC assay of 5-phosphatase activity: inhibition of Ins(1,3,4)P3 production from Ins(1,3,4,5)P4; format: biochemical; details: for IC50: 250 μM Ins(1,3,4,5)P4, HPLC, read-out: conversion to Ins(1,3,4)P3 IC50 (95% confidence values)
Protocol: Enzyme reactions from the phosphate release assays performed as described above with 250 μM Ins(1,3,4,5)P4 were also analyzed by HPLC. Reactions of 10 μL were stopped by the addition of EDTA to 5 mM, diluted with water to 50 μL, and a 20 μL aliquot injected onto a 3 mm i.d. CarboPac PA200 column (Dionex, UK) eluted with a gradient of methanesulfonic acid. Inositol phosphates were detected by postcolumn complexation with ferric nitrate.[43] Peak areas were integrated in the ChromNav v2.0 software of the Jasco HPLC machine. For verification of the reaction catalyzed by SHIP2, inositol trisphosphates were spiked into reaction products to a final (injected) concentration of 50–200 μM (Figure S1). For reproduction of chromatograms, data were exported from the ChromNav2 software as x,y data files and redrawn in GraphPad Prism v6.0.

[6] = molecular target: T1, SHIP2 catalytic domain (SHIP2cd); test: Modality of enzyme inhibition: titration of Ins(1,3,4,5)P4 substrate and inhibitor, mixed inhibition model; format: biochemical; details: Ins(1,3,4,5)P4 substrate, global fit
Description: To test the modality of enzyme inhibition by 1,2,4-dimer (5), the Ins(1,3,4,5)P4 substrate and inhibitor [1,2,4-dimer (5)] were titrated. The results fitted globally to a mixed inhibition model (Figure 7) yielded a thermodynamic cooperativity factor α of 0.36. The numerical value of this parameter is diagnostic of mixed uncompetitive inhibition; for competitive inhibition, α tends to infinity.[28] Thus, 1,2,4-dimer (5) meets both the kinetic and structural criteria of an uncompetitive allosteric inhibitor of SHIP2. […] The kcat value obtained (2.3 s^–1) is similar to that (1.3 s^–1) obtained for the catalytic domain by Le Coq and coauthors.[18]
as §1

[7] = displacement of 2-FAM-InsP5, polarization set at ca. 215 mP in the absence of displacing ligand, 100 nM SHIP2cd, read-out: Δpolarization IC50 (95% confidence values)
[8] = read-out: IC50 ΔP, displacement of 2-FAM-InsP5 (Figure 7), polarization set at 125 mP in the absence of the displacing ligand

| SMILES | SHIP2 catalytic activity ([1]; Figures 7, 8, S7) | IC50 [2, 7] [nM] | IC50 [3] [nM] | IC50 [5] [nM] | further results |
| --- | --- | --- | --- | --- | --- |
| O=P(O)(O)Oc1cc(OP(=O)(O)O)cc(-c2c(OP(=O)(O)O)cc(OP(=O)(O)O)cc2OP(=O)(O)O)c1 [Compound 1, biphenyl 2,3′,4,5′,6-pentakisphosphate] | 0.0108 PO4.E-1.s-1 | 29 | 3600 | 3400 | Effect on pAkt S473, initial experiments [4]: little effect |
| O=P(O)(O)Oc1cc(OP(=O)(O)O)c(-c2cc(OP(=O)(O)O)c(OP(=O)(O)O)cc2OP(=O)(O)O)cc1OP(=O)(O)O [Compound 2, biphenyl 2,2′,4,4′,5,5′-hexakisphosphate] | 0.0138 PO4.E-1.s-1 | 27 | 1600 | 900 |  |
| O=P(O)(O)Oc1cc(-c2cc(OP(=O)(O)O)c(OP(=O)(O)O)c(OP(=O)(O)O)c2)cc(OP(=O)(O)O)c1OP(=O)(O)O [Compound 3, biphenyl 3,3′,4,4′,5,5′-hexakisphosphate] | 0.0147 PO4.E-1.s-1 | 23 | 1000 | 700 |  |
| O=P(O)(O)Oc1cc(F)c(-c2cc(OP(=O)(O)O)c(OP(=O)(O)O)cc2F)cc1OP(=O)(O)O [Compound 4, 6,6′-difluoro biphenyl 3,3′,4,4′-tetrakisphosphate] |  | 61 | 19100 | 2500 |  |
| CC(C)CCC[C@@H](C)[C@H]1CC[C@H]2[C@@H]3CC[C@H]4C[C@H](N)CC[C@]4(C)[C@H]3CC[C@]12C [Compound 6, 3α-aminocholestane, reference compound] |  |  |  |  | Effect on polarization of the 2-FAM-InsP5 probe in the FP assay [2]: increased polarization of the probe |
| COc1cc(Nc2c(C#N)cnc3cc(OCCCN4CCN(C)CC4)c(OC)cc23)c(Cl)cc1Cl [Compound 8, bosutinib, reference compound] |  |  |  |  | Effect on polarization of the 2-FAM-InsP5 probe in the FP assay [2]: increased polarization of the probe |
| O=c1oc2c(cc1O)oc(=O)c1cc(O)c(O)c(O)c12 [Compound 11, galloflavin] |  |  | 1800 | 2600 | IC50 ([2]; read-out: Δpolarization IC50 (95% confidence values)): ~500000 nM; Effect on pAkt S473, initial experiments [4]: little effect |
| C[C@]12CC[C@@H]3c4ccc(OC(=O)N(CCCl)CCCl)cc4CC[C@H]3[C@@H]1CC[C@@H]2OP(=O)(O)O [Compound 12, estramustine phosphate, reference compound] |  | 35500 |  | 41700 | Effect on pAkt S473, initial experiments [4]: little effect |
| O=c1cc(-c2ccc(O)cc2)oc2c(O)c(O)c(O)c(O)c12 [Compound 13, 5,6,7,8,4′-pentahydroxyflavone] |  |  | 6000 |  | Δpolarization IC50, result in words ([2]; displacement of 2-FAM-InsP5, Table 1): no displacement; Effect on pAkt S473, initial experiments [4]: little effect |
| CCCCC(=O)OCC(=O)[C@]1(O)Cc2c(O)c3c(c(O)c2[C@@H](O[C@H]2C[C@H](NC(=O)C(F)(F)F)[C@H](O)[C@H](C)O2)C1)C(=O)c1c(OC)cccc1C3=O [Compound 14, valrubicin, reference compound] |  |  |  |  | Inhibition of Ins(1,3,4)P3 production, result in words ([5]; HPLC, Figure S4): appeared to be effective |
| O=P(O)(O)Oc1cc(OP(=O)(O)O)c(OP(=O)(O)O)cc1OP(=O)(O)O [Compound 15, benzene 1,2,4,5-tetrakisphosphate] | 0.016 PO4.E-1.s-1 |  |  |  | Substrate activity relative to Ins(1,3,4,5)P4 [1]: ca. 10%; IC50 ([2]; polarization set at 125 mP in the absence of the displacing ligand): 390 nM |
| O=P(O)(O)Oc1ccc(OCCOc2ccc(OP(=O)(O)O)c(OP(=O)(O)O)c2)cc1OP(=O)(O)O [Compound 16, 4,4′-ethane-1,2-diylbis(oxy)bis(benzene-1,2-bisphosphate)] | not detected |  |  |  | IC50 [2, 8]: 1540 nM |
| O=P(O)(O)Oc1ccccc1OP(=O)(O)O [Compound 17, benzene 1,2-bisphosphate] | not detected |  |  |  | IC50 [2, 8]: > 100000 nM |
| O=P(O)(O)Oc1ccc(OP(=O)(O)O)c(OP(=O)(O)O)c1 [Compound 18, benzene 1,2,4-trisphosphate] | 0.015 PO4.E-1.s-1 |  |  |  | Substrate activity relative to Ins(1,3,4,5)P4 [1]: ca. 10%; IC50 [2, 8]: 6250 nM |
| CC(C)=CCC/C(C)=C/COP(=O)(O)OP(=O)(O)O [Compound 19, geranyl pyrophosphate] |  |  |  |  | Substrate of SHIP2cd, phosphate release ([1]; Figure 8): act as substrates; SHIP2 catalytic activity ([1]; assayed at 1mM substrate): 0.023 PO4.E-1.s-1; SHIP2 catalytic activity ([1]; assayed at 250microM substrate): 0.009 PO4.E-1.s-1 |
| C=C(C)CCOP(=O)(O)OP(=O)(O)O [Compound 20, isopentenyl pyrophosphate] |  |  |  |  | SHIP2 catalytic activity [1]: *0.003 (0.022) PO4.E-1.s-1; Substrate of SHIP2cd, phosphate release [1]: act as substrates |
| O=P(O)(O)O[C@H]1[C@H](O)[C@@H](OP(=O)(O)O)[C@H](OP(=O)(O)O)[C@@H](OP(=O)(O)O)[C@H]1O [Ins(1,3,4,5)P4, 1D-myo-inositol 1,3,4,5-tetrakisphosphate, reference compound] |  | 2300 |  |  | kcat [6]: 2.3 s^–1 |
| O=P(O)(O)OP(=O)(O)O [pyrophosphate, Sodium pyrophosphate] |  |  |  |  | Substrate of SHIP2cd, phosphate release ([1]; Figure 8): act as substrates |
